Source: patent publication US20230150921A1, “PHENOLIC ACID LIPID BASED CATIONIC LIPIDS” (Translate Bio, Inc., priority 2020, published 2023)

Assay: Characterisation of lipid nanoparticle formulations (size, PDI, mRNA encapsulation)
Type: physicochemical
Conditions: lipid nanoparticle with FFL mRNA; Process A; Cationic Lipid:DMG-PEG2000:Cholesterol:DOPE 40:5:25:30 mol%; N/P 4
Experimental: One exemplary process for lipid nanoparticle formulation is Process A of WO 2018/089801 (see, e.g., Example 1 and FIG. 1 of WO 2018/089801). Process A (“A”) relates to a conventional method of encapsulating mRNA by mixing mRNA with a mixture of lipids, without first pre-forming the lipids into lipid nanoparticles. In an exemplary process, an ethanol lipid solution and an aqueous buffered solution of mRNA were prepared separately. A solution of mixture of lipids (cationic lipid, helper lipids, zwitterionic lipids, PEG lipids etc.) was prepared by dissolving lipids in ethanol. The mRNA solution was prepared by dissolving the mRNA in citrate buffer. The mixtures were then both heated to 65° C. prior to mixing. Then, these two solutions were mixed using a pump system. In some instances, the two solutions were mixed using a gear pump system. In certain embodiments, the two solutions were mixing using a ‘T’ junction (or “Y” junction). The mixture was then purified by diafiltration with a TFF process. The resultant formulation concentrated and stored at 2-8° C. until further use. A second exemplary process for lipid nanoparticle formulation is Process B of WO 2018/089801 (see, e.g., Example 2 and the FIGURE of WO 2018/089801). Process B (“B”) refers to a process of encapsulating messenger RNA (mRNA) by mixing pre-formed lipid nanoparticles with mRNA. A range of different conditions, such as varying temperatures (i.e., heating or not heating the mixture), buffers, and concentrations, may be employed in Process B. In an exemplary process, lipids dissolved in ethanol and citrate buffer were mixed using a pump system. […] The resultant formulation mixture was empty lipid nanoparticles in citrate buffer containing alcohol. The formulation was then subjected to a TFF purification process wherein buffer exchange occurred. The resulting suspension of pre-formed empty lipid nanoparticles was then mixed with mRNA using a pump system. […] The lipid nanoparticle formulations of Table 5 were prepared by either Process A or B. Each formulation comprised mRNA encoding firefly luciferase protein (FFL mRNA) and lipids (Cationic Lipid: DMG-PEG2000; Cholesterol: DOPE) in the mol % ratios set forth in Table 5.

Row | Compound | Encapsulation % [%] | PDI | Size (nm)
1 | CCCCCCCCCCCCC(O)CN(CCCCC(=O)Oc1c(OC)cc(/C=C/C(=O)OCCCN(C)C)cc1OC)CC(O)CCCCCCCCCCCC (stereo not drawn) [Compound 11] | 98 | 0.214 | 44.0
2 | CCCCCCCCC(O)CN(CCCCC(=O)Oc1c(OC)cc(C(=O)OCCCN(C)C)cc1OC)CC(O)CCCCCCCC (stereo not drawn) [Compound 3] | 89 | 0.207 | 40.3
3 | CCCCCCC/C=C\C/C=C\CCCCC(O)CN(CCCC(=O)Oc1c(OC)cc(C(=O)OCCCN(C)C)cc1OC)CC(O)CCCC/C=C\C/C=C\CCCCCCC (stereo not drawn) [Compound 7] | 95 | 0.429 | 64.2
4 | CCCCCCCCC(O)CN(CCCCC(=O)Oc1c(OC)cc(C(=O)OCCCN(C)C)cc1OC)CC(O)CCCCCCCC (stereo not drawn) [Compound 9] | 79 | 0.213 | 42.3
5 | CCCCCCCCCCCCC(O)CN(CCCCC(=O)Oc1c(OC)cc(C(=O)OCCCN(C)C)cc1OC)CC(O)CCCCCCCCCCCC (stereo not drawn) [Compound 6] | 73 | 0.208 | 47.0

The remaining lines, values ahead:

Row | Encapsulation % [%] | PDI | Size (nm) | Compound
6 | 91 | 0.198 | 41.4 | CCCCCCCCCCC(O)CN(CCCCC(=O)Oc1c(OC)cc(C(=O)OCCCN(C)C)cc1OC)CC(O)CCCCCCCCCC (stereo not drawn) [Compound 4]
7 | 97 | 0.249 | 48.4 | CCCCCCCCCCCCC(O)CN(CCCC(=O)Oc1c(OC)cc(C(=O)OCCCN(C)C)cc1OC)CC(O)CCCCCCCCCCCC (stereo not drawn) [Compound 5]
8 | 94 | 0.251 | 48.9 | CCCCCCCCCCC(O)CN(CCCC(=O)Oc1c(OC)cc(C(=O)OCCCN(C)C)cc1OC)CC(O)CCCCCCCCCC (stereo not drawn) [Compound 2]
9 | 94 | 0.213 | 43.3 | CCCCCCCCCCC(O)CN(CCCCC(=O)Oc1c(OC)cc(/C=C/C(=O)OCCCN(C)C)cc1OC)CC(O)CCCCCCCCCC (stereo not drawn) [Compound 10]
10 | 96 | 0.173 | 65.1 | CCCCCCCCCCC(O)CN(CCCC(=O)Oc1ccc(C(=O)OCCCN(C)C)cc1CC)CC(O)CCCCCCCCCC (stereo not drawn) [Compound 12]
11 | 95 | 0.193 | 43.3 | CCCCCCCCCCC(O)CN(CCCC(=O)Oc1c(OC)cc(/C=C/C(=O)OCCCN(C)C)cc1OC)CC(O)CCCCCCCCCC (stereo not drawn) [Compound 8]
12 | 94 | 0.235 | 47.6 | CCCCCCCCC(O)CN(CCCC(=O)Oc1c(OC)cc(C(=O)OCCCN(C)C)cc1OC)CC(O)CCCCCCCC (stereo not drawn) [Compound 1]
